Here are results for seven compounds from patent publication US8026237B2, “Pyrrole derivatives as pharmaceutical agents” (Exelixis, Inc., priority 2004, dated 2011).

In brackets after ≈: the same amount, converted by molar mass. Bounds are passed on as bounds.

By IC50 is commonly meant the midpoint of a concentration-inhibition curve. By kinetic solubility is commonly meant solubility judged after dilution from a stock solution rather than from solid.

The first data set concerns the target T1, human MR (GAL4-MR chimera, amino acids 671 to 984) (Homo sapiens, UniProt P08235).
T1 construct: expressed in transfected cells; host or cells: CV-1 (African Green Monkey Kidney Cells)
T1 sequence (P08235 671-984): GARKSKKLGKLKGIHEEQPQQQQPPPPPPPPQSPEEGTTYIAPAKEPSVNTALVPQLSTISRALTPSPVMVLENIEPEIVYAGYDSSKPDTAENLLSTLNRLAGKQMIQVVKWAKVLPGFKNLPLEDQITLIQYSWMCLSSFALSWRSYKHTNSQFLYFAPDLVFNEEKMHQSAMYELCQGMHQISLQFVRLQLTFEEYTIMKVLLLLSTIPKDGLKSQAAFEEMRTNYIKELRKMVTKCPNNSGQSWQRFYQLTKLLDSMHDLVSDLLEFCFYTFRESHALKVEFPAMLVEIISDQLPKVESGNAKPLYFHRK
The data set can be described thus: GAL4-MR cell based assay (antagonist format).
Conditions: not given
Here is the method:
Compound activity was determined in a cell-based assay using a GAL4-MR chimera to identify compounds with the ability to modulate MR activity.
The pCMX-GAL4-MR expression plasmid was constructed by cloning nucleotides encoding amino acids 671 to 984 of human MR (see GenBank sequence AAA59571) into the vector pCMX-GAL4 (Perlmann et al., 1993,Genes & Development 7:1411-1422) comprising nucleotides encoding for amino acids 1-147 of the GAL4 DNA binding domain.
The TK-MH100x4-Luc (GAL4UAS-TK-Luciferase) reporter construct was constructed by insertion of four copies of the Gal4 UAS (Kang et al. 1993, J. Biol. Chem. 268:9629-9635) into the Hind III site of TK-Luc. The parental plasmid, TK-Luc, was prepared by insertion of the Herpes simplex virus thymidine kinase gene promoter (−105 to +51) obtained from the plasmid pBLCAT2 by digestion with HindIII and XhoI (described in Luckow et al., 1987, Nuc. Acid. Res. 15:5490) into the plasmid MMTV-LUC described by Hollenberg and Evans, 1988, Cell 55:899-906) after removal of MMTV-LTR promoter sequence from MMTV-LUC via digestion with HindIII and XhoI. Correct cloning was confirmed by restriction digestion and/or sequencing.
Assays were performed using CV-1 (African Green Monkey Kidney Cells) (ATCC) cells grown in T175 flasks at a density of 3×10^6 cells/flask in DMEM with 5% FBS. Cells were transfected one day after plating at 70-80 percent confluency with a DNA mixture containing (per T175 flask) 9 μg pCMX-GAL4-MR, 9 μg TK-MH100x4-Luc, and 2 μg pCMX β-Gal using the transfection reagent FuGENE6 (Roche Molecular Biochemicals, Indianapolis, Ind.) following recommended protocols and instructions provided by the manufacturer, and incubated with transfection reagents for 5 hours at 37° C.
Transfected cells were trypsinized, resuspended in media, and 45 μL was added to assay plates at a density of approximately 5,000 cells/well using a MultiDrop dispenser (MTX Lab Systems, Inc., VA). The assay plates containing both compounds and screening cells were incubated for approximately 20 hours at 37° C. and 5% CO2 in a tissue culture incubator.
After incubation of the transfected cells with compounds, Lysis buffer (1% Triton X-100, 10% Glycerol, 5 mM DTT, 1 mM EGTA, 25 mM Tricine, pH 7.8) and Luciferin assay buffer (0.73 mM ATP, 22.3 mM Tricine, 0.11 mM EDTA, 33.3 mM DTT, 0.2M MgSO4, 11 mM Luciferin, 6.1 mM Coenzyme A, 0.01 mM HEPES, pH 7.8) were prepared. Media was removed from the plates and lysis buffer and luciferin assay buffer mixed in a 1:1 ratio and then 30 μl of the mixture was added to each well using a Multidrop dispenser. Plates were read on the Northstar (Applied Biosystems, Foster City, Calif.) and data was analyzed using ActivityBase (ID Business Solutions, Ltd., Guildford, Surrey, UK). If required, luciferase values may be normalized for transfection efficiency by measuring β-galactosidase activity based on expression from the pCMX-Gal expression plasmid as described previously (Willy et al., 1995, Gene & Development, 9:1033-1045).
`Cc1cc(C(=O)NCCc2cccc(Cl)c2)c(C)n1-c1ccccc1C(F)(F)F` [2,5-dimethyl-1-(2-trifluoromethyl-phenyl)-1H-pyrrole-3-carboxylic acid [2-(3-chloro-phenyl)-ethyl]-amide] gave a half-maximal inhibitory concentration (IC50) of 1 to 5 µM.
`Cc1cc(C(=O)NCCc2ccccc2)c(C)n1-c1ccccc1C(F)(F)F` [2,5-dimethyl-1-(2-trifluoromethyl-phenyl)-1H-pyrrole-3-carboxylic acid phenethyl-amide]: the concentration for half-maximal inhibition (IC50) is under 0.5 µM.
In the case of `Cc1cc(C(=O)NCc2ccc(Oc3ccccc3)cc2)c(C)n1-c1ccccc1C(F)(F)F` [2,5-dimethyl-1-(2-trifluoromethyl-phenyl)-1H-pyrrole-3-carboxylic acid 4-phenoxy-benzylamide], the IC50 was in the range of 1 to 5 µM.
On the same count and under the same terms, for `Cc1cc(C(=O)NCCc2cccs2)c(C)n1-c1ccccc1C(F)(F)F` [2,5-dimethyl-1-(2-trifluoromethyl-phenyl)-1H-pyrrole-3-carboxylic acid (2-thiophen-2-yl-ethyl)-amide] the value was 0.5 to 1 µM.
The same measure, in the same setting: for `Cc1cc(C(=O)NCCc2ccccc2Cl)c(C)n1-c1ccccc1C(F)(F)F` [2,5-dimethyl-1-(2-trifluoromethyl-phenyl)-1H-pyrrole-3-carboxylic acid [2-(2-chloro-phenyl)-ethyl]-amide] the value was 0.5 to 1 µM; for `Cc1cc(C(=O)Nc2cc(C(F)(F)F)ccc2F)c(C)n1-c1ccccc1C(F)(F)F` [2,5-dimethyl-1-(2-trifluoromethyl-phenyl)-1H-pyrrole-3-carboxylic acid (2-fluoro-5-trifluoromethyl-phenyl)-amide], 1 to 5 µM.

Tested on in another data set: not listed separately
Put plainly: Kinetic solubility assay. As to conditions: pH 7.4, aqueous buffer, kinetic from dmso stock. Here is the method: The kinetic solubility of test compounds in buffer was evaluated using a 96 well filtration plate format. A 500 μM assay solution in PBS, pH7.4 (or other assay buffer, as needed) was generated form a DMSO stock solution (up to 10 mM). Samples were transferred to a 96 Millipore MultiScreen HTS 96-well Filter plate (Cat# MSSLBPC10) mixed by shaking for 1.5 hours and processed by filtration prior to quantitation by HPLC-UV. Amiodarone and testosterone were used as reference controls.
`C[C@]12CC[C@H]3[C@@H](CCC4=CC(=O)CC[C@@]43C)[C@@H]1CC[C@@H]2O` [testosterone] registered a solubility (kinetic) at 1.5 h of about 330 µM (≈ 95.2 µg/mL).
